Data published in PMC7996328, “Design, Synthesis, and Biological Evaluation of a Series of 5- and 7-Hydroxycoumarin Derivatives as 5-HT1A Serotonin Receptor Antagonists” (Pharmaceuticals, 2021).
Read-outs that look alike come from different tables or passages of the source. One block for each compound: values may come before it.

Experiments:
[1] = biological target: T1, 5-HT2A receptor (Rattus norvegicus, UniProt P14842); test: 5-HT2A competition binding assay, [3H]ketanserin, frontal cortex homogenates; details: [3H]ketanserin 1 nM
T1 construct: from tissue; host or cells: rat frontal cortex (male SD), membrane homogenate
Method: Male SD rats were decapitated and their brains removed and placed on ice. Frontal cortices were homogenized with a glass homogenizer in 30 vol ice-cold homogenization buffer (50 mM Tris-HCl. 1 mM EDTA. 5 mM MgCl2. pH 7.4). Next, the homogenate was centrifuged at 20,000× g for 15 min at 4 °C. […] The suspension was again centrifuged at 20,000× g for 15 min at 4 °C. The pellet was resuspended in 10 vol. 50 mM Tris-HCl (pH 7.4) and the centrifugation step was repeated. The final pellet was suspended in 10 vol 50 mM Tris-HCl (pH 7.4) and stored at −80 °C.
Non-specific binding was determined in the presence of 10 μM mianserin. After incubation, the reaction mixture was deposited onto UniFilter-96 GF/B plates with the aid of a FilterMate-96 Harvester. Filter plates were presoaked beforehand with 0.4% PEI for 1 h. Next, each filter well was washed with 1.75 mL of 50 mM Tris-HCl (pH 7.4) and left to dry on a heating block set to 50 °C for 2 h. Then 45 µL of Microscint-20 scintillation fluid was added to each filter well and left to equilibrate overnight. Filter-bound radioactivity was counted in a MicroBeta^2 Microplate Counter. Binding curves were fitted with one site non-linear regression. Affinity was presented as the inhibitory constant (pKi ± SEM and Ki ± SEM) from two or three separate experiments.

[2] = biological target: T2, 5-HT1A receptor (Rattus norvegicus, UniProt P19327); test: Antagonist activity for the 5-HT1A receptor, [35S]GTPγS assay in hippocampal homogenates; format: biochemical; details: 8-OH-DPAT 1.4 × 10^−7 M, mean ± SEM; for EC50: antagonistic activity
T2 construct: Hippocampal homogenates (15 μg/mL) were added to each tube as the 5-HT1A receptor source; from tissue; host or cells: rat hippocampus (male Sprague-Dawley), membrane homogenate
T2 sequence (P19327 1-422): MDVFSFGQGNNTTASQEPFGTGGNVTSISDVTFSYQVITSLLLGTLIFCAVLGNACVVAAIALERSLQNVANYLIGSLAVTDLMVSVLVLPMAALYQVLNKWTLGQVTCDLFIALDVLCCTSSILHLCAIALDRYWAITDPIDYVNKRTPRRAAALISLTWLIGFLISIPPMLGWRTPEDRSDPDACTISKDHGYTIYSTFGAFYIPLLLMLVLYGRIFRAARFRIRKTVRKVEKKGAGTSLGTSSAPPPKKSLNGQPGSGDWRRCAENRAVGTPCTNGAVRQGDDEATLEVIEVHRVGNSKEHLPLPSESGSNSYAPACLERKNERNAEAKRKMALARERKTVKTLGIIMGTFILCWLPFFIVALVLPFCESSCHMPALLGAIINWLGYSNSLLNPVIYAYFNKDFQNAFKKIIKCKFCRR
Method: Male Sprague–Dawley rats were decapitated, their brains removed, and placed on ice. Hippocampi were dissected and homogenized with a glass homogenizer in 30 vol. ice-cold TED buffer (50 mM Tris-HCl, 1 mM EDTA, 1mM dithiotheritol, pH 7.4). Next, the homogenate was centrifuged at 21,000× g for 30 min at 4 °C. […] The suspension was centrifuged again at 21,000× g for 30 min at 4 °C. The pellet was resuspended in 30 vol. TED buffer (pH 7.4) and the centrifugation step was repeated. The final pellet was suspended in 10 vol 50 mM Tris-HCl (pH 7.4) and stored at −80 °C until use.
Serial dilutions of the compounds tested (10^−10–10^−5 M) were incubated in triplicate with 0.8 nM [^35S]GTPγS in assay buffer (50 mM Tris-HCl, pH = 7.4, 1 mM EGTA, 3 mM MgCl2, 100 mM NaCl, 30 µM GDP) and 8-OH-DPAT (final concentration 1.4 × 10^−7 M) in the final assay volume of 250 µL. Hippocampal homogenates (15 μg/mL) were added to each tube as the 5-HT1A receptor source. […] Non-specific binding was determined with 10 µM of unlabeled GTPγS. […] Next, 96-well Unifilter® Plates (Perkin Elmer, Waltham, MA, USA) were presoaked for 1 h with 50 mM Tris-HCl (pH = 7.4) before harvesting. The reaction was terminated by vacuum filtration onto filter plates with the FilterMate Harvester® (Perkin Elmer, Waltham, MA, USA). The samples were then rapidly washed with 2 mL of 50 mM Tris-HCl (pH = 7.4) buffer. Filter plates were dried for 2 h at 50 °C. After drying, 45 µL of EcoScint-20 scintillant (Perkin Elmer) was added to every well. Radioactivity was counted in a Trilux MicroBeta^2 counter (Perkin Elmer). Data were analyzed with GraphPad Prism 5.0 software (GraphPad Software, San Diego, CA, USA, www.graphpad.com). Curves were fitted with a one-site non-linear regression model. Efficacy (Emax) and half maximal inhibitory concentration (IC50) were calculated from the Cheng–Prusoff equation and expressed as means ± SEM.

[3] = read-out: Ki (nM ± SEM) (converted)
[4] = read-out: pKi (M ± SEM) (converted)

T1 sequence (P14842 whole entry): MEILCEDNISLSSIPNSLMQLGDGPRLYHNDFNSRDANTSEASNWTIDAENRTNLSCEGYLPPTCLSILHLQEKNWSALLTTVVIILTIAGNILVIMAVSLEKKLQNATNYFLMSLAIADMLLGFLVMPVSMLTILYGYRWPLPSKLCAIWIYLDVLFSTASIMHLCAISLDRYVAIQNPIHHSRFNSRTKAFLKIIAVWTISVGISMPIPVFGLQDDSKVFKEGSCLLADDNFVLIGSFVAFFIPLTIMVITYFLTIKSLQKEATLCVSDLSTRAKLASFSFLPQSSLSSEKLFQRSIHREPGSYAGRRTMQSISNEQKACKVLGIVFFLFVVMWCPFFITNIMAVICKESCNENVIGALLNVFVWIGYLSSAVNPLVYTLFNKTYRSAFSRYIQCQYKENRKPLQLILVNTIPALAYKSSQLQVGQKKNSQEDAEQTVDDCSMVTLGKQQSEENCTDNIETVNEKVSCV

SMILES: CC(=O)c1c(OCCN2CCN(c3cccc(Cl)c3Cl)CC2)ccc2c(C)cc(=O)oc12 [Compound 6i, 8-acetyl-7-(2-[4-(2,3-dichlorophenyl)piperazin-1-yl]ethoxy)-4-methylchromen-2-one]
Ki [1, 3]: 755 ± 178 nM | melting point: 159 to 161 °C | IC50 [2]: 200 µM | EC50 [2]: 204000 nM

Ki [1, 3]: 51 ± 8.3 nM | Ki [1, 4]: 63.1 nM | melting point: 137 to 139 °C | IC50 [2]: 63.1 µM | EC50 [2]: 55900 nM
SMILES: CC(=O)c1c(OCCCCCN2CCN(c3cccc(Cl)c3Cl)CC2)ccc2c(C)cc(=O)oc12 [Compound 5i, 8-acetyl-7-(5-[4-(2,3-dichlorophenyl)piperazin-1-yl]penthoxy)-4-methylchromen-2-one]

SMILES: Cc1cc(OCCN2CCN(c3cccc(Cl)c3Cl)CC2)c2c(C)cc(=O)oc2c1 [Compound 2i, 5-(2-(4-(2,3-dichlorophenyl)piperazin-1-yl)ethoxy)-4,7-dimethyl-2H-chromen-2-one]
Ki [1, 3]: 4310 ± 1550 nM | melting point: 142 to 145 °C | IC50 [2]: 398 µM | EC50 [2]: 366000 nM

SMILES: CC(=O)c1c(C)cc2oc(=O)cc(C)c2c1OCCCCCN1CCN(c2ccccc2Br)CC1 [Compound 3f, 6-acetyl-5-(5-(4-(2-bromophenyl)piperazin-1-yl)pentyloxy)-4,7-dimethyl-2H-chromen-2-one]
Ki [1, 3]: 354 ± 110 nM | melting point: 108 to 109 °C | IC50 [2]: 0.692 µM | EC50 [2]: 689 ± 138 nM

SMILES: COc1ccccc1N1CCN(CCOc2c(C(C)=O)c(C)cc3oc(=O)cc(C)c23)CC1 [Compound 4a, 6-acetyl-5-(2-(4-(2-methoxyphenyl)piperazin-1-yl)ethoxy)-4,7-dimethyl-2H-chromen-2-one]
Ki [1, 3]: 5210 ± 1250 nM | melting point: 132 to 134 °C | IC50 [2]: 0.1 µM | EC50 [2]: 91.6 ± 13.3 nM

SMILES: CC(=O)c1c(C)cc2oc(=O)cc(C)c2c1OCCCCCN1CCN(c2cccc(Cl)c2Cl)CC1 [Compound 3i, 6-acetyl-5-(5-(4-(2,3-dichlorophenyl)piperazin-1-yl)pentyloxy)-4,7-dimethyl-2H-chromen-2-one]
Ki [1, 3]: 486 ± 102 nM | melting point: 129 to 130 °C | IC50 [2]: 15.8 µM | EC50 [2]: 15400 nM

SMILES: Cc1cc(OCCCCCN2CCN(c3ccccc3F)CC2)c2c(C)cc(=O)oc2c1 [Compound 1b, 5-(5-(4-(2-fluorophenyl)piperazin-1-yl)pentyloxy)-4,7-dimethyl-2H-chromen-2-one]
Ki [1, 3]: 1260 ± 479 nM | melting point: 106 to 108 °C | IC50 [2]: 1 µM | EC50 [2]: 980 ± 207 nM

SMILES: CC(=O)c1c(C)cc2oc(=O)cc(C)c2c1OCCN1CCN(c2cc(C)cc(C)c2)CC1 [Compound 4h, 6-acetyl-5-(2-(4-(3,5-dimethylphenyl)piperazin-1-yl)ethoxy)-4,7-dimethyl-2H-chromen-2-one]
Ki [1, 3]: 1920 ± 382 nM | IC50 [2]: 39.8 µM | EC50 [2]: 26800 nM

SMILES: COc1ccccc1N1CCN(CCOc2ccc3c(C)cc(=O)oc3c2C(C)=O)CC1 [Compound 6a, 8-acetyl-7-(2-[4-(2-methoxyphenyl)piperazin-1-yl]ethoxy)-4-methylchromen-2-one]
Ki [1, 3]: 752 ± 171 nM | melting point: 157 to 159 °C | IC50 [2]: 3.16 µM | EC50 [2]: 2740 ± 626 nM

SMILES: CC(=O)c1c(C)cc2oc(=O)cc(C)c2c1OCCN1CCN(c2ccccc2C#N)CC1 [Compound 4j, 6-acetyl-5-(2-(4-(2-cyanophenyl)piperazin-1-yl)ethoxy)-4,7-dimethyl-2H-chromen-2-one]
Ki [1, 3]: 2430 ± 374 nM | melting point: 153 to 155 °C | IC50 [2]: 0.501 µM | EC50 [2]: 538 ± 105 nM

SMILES: COc1cccc(N2CCN(CCOc3ccc4c(C)cc(=O)oc4c3C(C)=O)CC2)c1 [Compound 6c, 8-acetyl-7-(2-[4-(3-methoxyphenyl)piperazin-1-yl]ethoxy)-4-methylchromen-2-one]
Ki [1, 3]: 920 ± 160 nM | Ki [1, 4]: 933 nM | melting point: 122 to 124 °C | IC50 [2]: 50.1 µM | EC50 [2]: 47200 nM

SMILES: CC(=O)c1c(C)cc2oc(=O)cc(C)c2c1OCCCCCN1CCN(c2cccc(F)c2)CC1 [Compound 3e, 6-acetyl-5-(5-(4-(3-fluorophenyl)piperazin-1-yl)pentyloxy)-4,7-dimethyl-2H-chromen-2-one]
Ki [1, 3]: 1420 ± 426 nM | melting point: 150 to 152 °C | IC50 [2]: 0.708 µM | EC50 [2]: 702 ± 112 nM

melting point: 121 to 123 °C
SMILES: Cc1cc(OCCBr)c2c(C)cc(=O)oc2c1 [Compound 2, 5-(2-bromoethoxy)-4,7-dimethyl-2H-chromen-2-one]

SMILES: Cc1cc(OCCCCCN2CCN(c3ccccc3Br)CC2)c2c(C)cc(=O)oc2c1 [Compound 1f, 5-(5-(4-(2-bromophenyl)piperazin-1-yl)pentyloxy)-4,7-dimethyl-2H-chromen-2-one]
Ki [1, 3]: 1550 ± 323 nM | melting point: 143 to 144 °C | IC50 [2]: 20 µM | EC50 [2]: 20900 nM

SMILES: CC(=O)c1c(OCCCCCN2CCN(c3cccc(F)c3)CC2)ccc2c(C)cc(=O)oc12 [Compound 5e, 8-acetyl-7-(5-[4-(3-fluorophenyl)piperazin-1-yl]penthoxy)-4-methylchromen-2-one]
Ki [1, 3]: 2110 ± 420 nM | melting point: 117 to 119 °C | IC50 [2]: 31.6 µM | EC50 [2]: 33900 nM

melting point: 99 to 101 °C
SMILES: Cc1cc(OCCCCCBr)c2c(C)cc(=O)oc2c1 [Compound 1, 5-(5-bromopentyloxy)-4,7-dimethyl-2H-chromen-2-one]

SMILES: COc1cccc(N2CCN(CCCCCOc3ccc4c(C)cc(=O)oc4c3C(C)=O)CC2)c1 [Compound 5c, 8-acetyl-7-(5-[4-(3-methoxyphenyl)piperazin-1-yl]penthoxy)-4-methylchromen-2-one]
Ki [1, 3]: 144 ± 38 nM | IC50 [2]: 25.1 µM | EC50 [2]: 22900 nM

melting point: 168 to 169 °C
SMILES: CC(=O)c1c(C)cc2oc(=O)cc(C)c2c1OCCBr [Compound 4, 6-acetyl-5-(2-bromoethoxy)-4,7-dimethyl-2H-chromen-2-one]

SMILES: CC(=O)c1c(C)cc2oc(=O)cc(C)c2c1OCCN1CCN(c2cc(C)ccc2C)CC1 [Compound 4d, 6-acetyl-5-(2-(4-(2,5-dimethylphenyl)piperazin-1-yl)ethoxy)-4,7-dimethyl-2H-chromen-2-one]
Ki [1, 3]: 11900 nM | IC50 [2]: 79.4 µM | EC50 [2]: 74700 nM

melting point: 140 to 142 °C
SMILES: CC(=O)c1c(OCCBr)ccc2c(C)cc(=O)oc12 [Compound 6, 8-acetyl-7-(2-bromoethoxy)-4-methylchromen-2-one]

melting point: 78 to 80 °C
SMILES: CC(=O)c1c(C)cc2oc(=O)cc(C)c2c1OCCCCCBr [Compound 3, 6-acetyl-5-(5-bromopentyloxy)-4,7-dimethyl-2H-chromen-2-one]

SMILES: COc1ccccc1N1CCN(CCCCCOc2c(C(C)=O)c(C)cc3oc(=O)cc(C)c23)CC1 [Compound 3a, 6-acetyl-5-(5-(4-(2-methoxyphenyl)piperazin-1-yl)pentyloxy)-4,7-dimethyl-2H-chromen-2-one]
Ki [1, 3]: 641 ± 128 nM | IC50 [2]: 0.0398 µM | EC50 [2]: 39.4 ± 3.63 nM
